Results: ChEMBL document CHEMBL5729376, “SSAO inhibitors and use thereof” (2022)

Tests used:
[1] = molecular target: T1, Amine oxidase [flavin-containing] A (Homo sapiens, UniProt P21397); assay: (§1) SSAO Activity Assay: Amine oxidase activity of recombinant hSSAO, hMAO-A, and hMAO-B isoforms are measured using the MAO-Glo assay kit (Promega, V1402). Ten nL test compounds (with DMSO as vehicle, 0.1% v/v for hSSAO, hMAO-A and hMAO-B) were added into assay plates by Echo, and pre-incubated with 5 μL of enzyme for 30 mins at room temperature before the addition of 5 μL of luminogenic substrate. The substrate concentration is 40 μM for human recombinant SSAO, 40 μM for human recombinant MAO-A, and 4 μM for human recombinant MAO-B. The hSSAO and hMAO-A assays were conducted in the MAO-A reaction buffer in the kit, and the MAO-B assay was conducted in the MAO-B reaction buffer. Oxidation of the substrate was conducted for 1 hr, before the addition of detecting reagent according the manufacture's protocol. The IC50 value of the tested compounds was calculated by fitting the dose response curve using a 4-parameter non-linear regression routine.
T1 sequence (P21397 whole entry): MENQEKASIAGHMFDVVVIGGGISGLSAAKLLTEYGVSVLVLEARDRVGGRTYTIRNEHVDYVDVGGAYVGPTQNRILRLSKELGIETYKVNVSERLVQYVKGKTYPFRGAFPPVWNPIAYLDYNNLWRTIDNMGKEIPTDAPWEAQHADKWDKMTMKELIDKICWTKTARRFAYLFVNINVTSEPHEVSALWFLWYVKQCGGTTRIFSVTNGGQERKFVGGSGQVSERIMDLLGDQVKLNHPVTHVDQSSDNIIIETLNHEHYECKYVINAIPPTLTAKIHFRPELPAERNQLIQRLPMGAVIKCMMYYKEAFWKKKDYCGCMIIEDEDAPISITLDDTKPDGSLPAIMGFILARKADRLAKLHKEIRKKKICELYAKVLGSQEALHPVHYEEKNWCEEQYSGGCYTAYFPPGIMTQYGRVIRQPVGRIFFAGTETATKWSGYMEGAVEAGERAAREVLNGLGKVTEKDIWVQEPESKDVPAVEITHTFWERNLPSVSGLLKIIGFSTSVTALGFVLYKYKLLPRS

[2] = molecular target: T2, Amine oxidase [flavin-containing] B (Homo sapiens, UniProt P27338); assay: as §1
T2 sequence (P27338 whole entry): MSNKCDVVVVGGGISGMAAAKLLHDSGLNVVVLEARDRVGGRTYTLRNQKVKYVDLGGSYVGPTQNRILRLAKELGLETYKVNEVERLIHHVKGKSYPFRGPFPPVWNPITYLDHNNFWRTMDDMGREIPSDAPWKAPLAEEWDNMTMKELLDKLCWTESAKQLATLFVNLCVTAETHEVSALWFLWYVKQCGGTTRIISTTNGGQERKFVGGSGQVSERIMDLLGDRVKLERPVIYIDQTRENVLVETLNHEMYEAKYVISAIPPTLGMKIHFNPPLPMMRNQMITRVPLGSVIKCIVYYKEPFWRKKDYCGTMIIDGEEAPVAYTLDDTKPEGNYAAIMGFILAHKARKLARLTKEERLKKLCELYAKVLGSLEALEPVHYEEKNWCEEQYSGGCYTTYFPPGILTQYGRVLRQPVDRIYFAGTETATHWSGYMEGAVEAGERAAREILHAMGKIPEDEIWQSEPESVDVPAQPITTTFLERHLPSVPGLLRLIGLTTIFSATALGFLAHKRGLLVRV

IC50 [1]	IC50 [2]	Compound
> 30 µM	< 10 µM	C[C@@H](CS(=O)(=O)c1ccc(OC/C(=C/F)CN)cc1)N1CCCCC1=O
> 30 µM	> 30 µM	CC(C)N1CCN(CS(=O)(=O)c2ccc(OC/C(=C/F)CN)cc2)C(=O)C1
> 30 µM	> 30 µM	NC/C(=C\F)COc1ccc(S(=O)(=O)CN2CCCC2=O)cc1
> 30 µM	> 30 µM	CC(C)(CN1CCOCC1)CS(=O)(=O)c1ccc(OC/C(=C/F)CN)cc1
> 30 µM	> 30 µM	C[C@H](CN1CCOCC1)CS(=O)(=O)c1ccc(OC/C(=C/F)CN)cc1
> 30 µM	> 30 µM	NC/C(=C\F)COc1ccc(S(=O)(=O)CC2(CN3CCCCC3=O)CC2)cc1
> 30 µM	> 30 µM	C[C@@H](CN1CCOCC1)CS(=O)(=O)c1ccc(OC/C(=C/F)CN)cc1
> 30 µM	< 10 µM	C[C@H](CN1CCC2(CCCC2)C1=O)CS(=O)(=O)c1ccc(OC/C(=C/F)CN)cc1

More lines, now with the values behind:

Compound	IC50 [1]	IC50 [2]
C[C@@H](CN1CCC2(CCCC2)C1=O)CS(=O)(=O)c1ccc(OC/C(=C/F)CN)cc1	> 30 µM	< 10 µM
NC/C(=C\F)COc1ccc(S(=O)(=O)CC23CCC(C(=O)O)(CC2)CC3)cc1	> 30 µM	> 30 µM
NC/C(=C/F)COc1ccc(S(=O)(=O)CC23CCC(NC(=O)C4CC4)(CC2)CC3)cc1	> 30 µM	< 10 µM
NC/C(=C\F)COc1ccc(S(=O)(=O)Cn2ccccc2=O)cc1	> 30 µM	< 10 µM
NC/C(=C\F)COc1ccc(S(=O)(=O)CC23CC(C(=O)NC4CCC4)(C2)C3)cc1	> 30 µM	< 10 µM
NC/C(=C\F)COc1ccc(S(=O)(=O)CC23CCC(C(=O)NC4CCC4)(CC2)C3)cc1	> 30 µM	< 10 µM
